Patent US6417187B2, “1,2,4-triazole based compounds that can be used as insecticides or acaricides and processes” (Dow AgroSciences LLC, priority 2000, dated 2002)

Assays:
Format in all cases: in vivo
[1] = tested on: cotton aphid (Aphis gossvpii); test: Insecticidal test for cotton aphid (squash cotyledon spray); settings: for pest or weed control at 50 ppm: 72 h, read-out: CA: activity at 50 ppm against cotton aphid (% Control rating)
[2] = tested on: cabbage looper (Trichoplusia ni); test: Insecticidal test for cabbage looper (cabbage leaf-disc dip); settings: for pest or weed control at 400 ppm: Trichoplusia ni, 120 h, read-out: CL: activity at 400 ppm against cabbage looper (% Control rating)
[3] = tested on: Green Leafhopper (Nephotettix cincticeps); test: Insecticidal test for Green Leafhopper (rice seedling roots in test solution)
[4] = tested on: Brown Planthopper (Nilaparvata lugens); test: Insecticidal test for Brown Planthopper (rice seedling roots in test solution)
[5] = tested on: tobacco budworm (Heliothis virescens); test: Insecticidal test for tobacco budworm (cotton cotyledon leaf-disc dip); settings: 400 ppm, cotton cotyledon leaf-dip, 2nd instar larvae, 5 days
[6] = tested on: beet armyworm (Spodoptera exigua); test: Insecticidal test for beet armyworm (treated lepidopteran diet); settings: for pest or weed control at 400 ppm: Spodoptera exigua, 120 h, read-out: BAW: activity at 400 ppm against beet armyworm (% Control rating)
[7] = tested on: Sweetpotato Whitefly (Bemisia tabacia); test: Insecticidal test for Sweetpotato Whitefly (cotton plant spray); settings: for pest or weed control at 200 ppm: Bemisia, 312 h, read-out: WF: activity at 200 ppm against whitefly (% Control rating)
[8] = 50 ppm spray on infested squash cotyledons, 3 days, population reduction versus untreated
[9] = 400 ppm, cabbage leaf-dip, 2nd instar larvae, 5 days
[10] = 10 ppm test solution, rice seedling roots, 3rd instar nymphs, mortality at 6 days
[11] = 400 ppm, treated diet, second-instar larvae, 5 days
[12] = 200 ppm spray on cotton plants, 13 days, reduction of large nymphs

SMILES	BPH: activity at 10 ppm against brown planthopper (% Control rating) [4, 10]	TBW: activity at 400 ppm against tobacco budworm (% Control rating) [5]	CL: activity at 400 ppm against cabbage looper (% Control rating) [2, 9]	BAW: activity at 400 ppm against beet armyworm (% Control rating) [6, 11]	WF: activity at 200 ppm against whitefly (% Control rating) [7, 12]	CA: activity at 50 ppm against cotton aphid (% Control rating) [1, 8]	further results
C#Cc1sc(-c2nc(-c3c(F)cccc3Cl)nn2C)c(Cl)c1Cl [Compound 2, 1-Methyl-3-(2-chloro-6-fluorophenyl)-5-(3,4-dichloro-5-ethynvl-thien-2-yl)[1,2,4]triazole]	D (60-69)	–	–	–	–	–	pest or weed control at 50 ppm [1, 8]: 60 to 69%; pest or weed control at 400 ppm [2, 9]: < 50%; GLH: activity at 10 ppm against green leafbopper (% Control rating) [3, 10]: F (less than 50)
Cn1nc(-c2c(F)cccc2Cl)nc1-c1sc(C#Cc2ccccc2F)c(Cl)c1Cl [Compound 9]	F (less than 50)	A (90-100)	A (90-100)	B (80-89)	F (less than 50)	–	–
Cn1nc(-c2c(F)cccc2Cl)nc1-c1sc(C#Cc2ccc(F)cc2)c(Cl)c1Cl [Compound 12]	F (less than 50)	–	A (90-100)	A (90-100)	F (less than 50)	C (70-79)	GLH: activity at 10 ppm against green leafbopper (% Control rating) [3, 10]: F (less than 50)
CCCc1ccc(C#Cc2sc(-c3nc(-c4c(F)cccc4Cl)nn3C)c(Cl)c2Cl)cc1 [Compound 14]	F (less than 50)	A (90-100)	A (90-100)	A (90-100)	F (less than 50)	A (90-100)	–
Cn1nc(-c2c(F)cccc2Cl)nc1-c1sc(C#Cc2ccc(-c3ccccc3)cc2)c(Cl)c1Cl [Compound 16]	F (less than 50)	–	D (60-69)	F (less than 50)	F (less than 50)	F (less than 50)	GLH: activity at 10 ppm against green leafbopper (% Control rating) [3, 10]: F (less than 50)
Cn1nc(-c2c(F)cccc2Cl)nc1-c1sc(C#Cc2ccc(F)cc2F)c(Cl)c1Cl [Compound 23, 3-(2-chloro-6-fluorophenyl)-5-(5-(2,4-difluorophenylalkynyl)-3,4-dichloro-2-thiophene)-1-methyl-1H-1,2,4-triazole]	–	–	–	–	–	–	pest or weed control at 50 ppm [1, 8]: < 50%; pest or weed control at 400 ppm [2, 9]: 90 to 100%; pest or weed control at 400 ppm [6, 11]: 90 to 100%; GLH: activity at 10 ppm against green leafbopper (% Control rating) [3, 10]: F (less than 50); pest or weed control at 200 ppm [7, 12]: < 50%
Cc1ccsc1C#Cc1sc(-c2nc(-c3c(F)cccc3Cl)nn2C)c(Cl)c1Cl [Compound 36]	D (60-69)	–	A (90-100)	–	F (less than 50)	E (50-59)	GLH: activity at 10 ppm against green leafbopper (% Control rating) [3, 10]: D (60-69)
Cn1nc(-c2c(F)cccc2Cl)nc1-c1sc(C#Cc2ccsc2)c(Cl)c1Cl [Compound 46]	F (less than 50)	–	D (60-69)	D (60-69)	F (less than 50)	E (50-59)	–
Cn1nc(-c2c(F)cccc2Cl)nc1-c1sc(C#Cc2ccc(F)c(C(F)(F)F)c2)c(Cl)c1Cl [Compound 47]	F (less than 50)	A (90-100)	A (90-100)	A (90-100)	–	C (70-79)	–
COc1ccc(C#Cc2sc(-c3nc(-c4c(F)cccc4Cl)nn3C)c(Cl)c2Cl)cc1Cl [Compound 48]	F (less than 50)	–	A (90-100)	A (90-100)	–	D (60-69)	–
Cc1cc(F)ccc1C#Cc1sc(-c2nc(-c3c(F)cccc3Cl)nn2C)c(Cl)c1Cl [Compound 52]	–	A (90-100)	A (90-100)	A (90-100)	F (less than 50)	D (60-69)	–
CCOc1ccc(C#Cc2sc(-c3nc(-c4c(F)cccc4Cl)nn3C)c(Cl)c2Cl)cc1F [Compound 60]	–	–	A (90-100)	A (90-100)	E (50-59)	F (less than 50)	–
Cn1nc(-c2c(F)cccc2Cl)nc1-c1sc(C#Cc2cnc(N3CCOCC3)nc2)c(Cl)c1Cl [Compound 63]	–	–	A (90-100)	D (60-69)	F (less than 50)	–	–
Cn1nc(-c2c(F)cccc2Cl)nc1-c1sc(C#Cc2cnc(N3CCCCC3)nc2)c(Cl)c1Cl [Compound 64]	–	–	A (90-100)	B (80-89)	F (less than 50)	–	–
CCCc1ccc(C#Cc2sc(-c3nc(-c4c(F)cccc4Cl)nn3CC)c(Cl)c2Cl)cc1 [Compound 81]	–	F (less than 50)	D (60-69)	A (90-100)	F (less than 50)	F (less than 50)	–
CCCCn1nc(-c2c(F)cccc2Cl)nc1-c1sc(C#Cc2ccc(CCC)cc2)c(Cl)c1Cl [Compound 82]	–	–	A (90-100)	D (60-69)	F (less than 50)	F (less than 50)	–
COc1ccc(C#Cc2sc(-c3nc(-c4c(Cl)cncc4Cl)nn3C)c(Cl)c2Cl)cc1 [Compound 87]	–	F (less than 50)	F (less than 50)	F (less than 50)	–	–	–
CCCc1ccc(C#Cc2ccc(-c3nc(-c4c(F)cccc4Cl)nn3C)c(Cl)c2Cl)cc1 [Compound 90]	–	–	–	–	–	–	CA: activity at 50 ppm against cotton aphid (% Control rating) ([1]; in vivo): B (key: A: 90-100; B: 80-89; C: 70-79; D: 60-69; E: 50-59; F: less than 50; G: inactive); CL: activity at 400 ppm against cabbage looper (% Control rating) ([2]; in vivo): A (key: A: 90-100; B: 80-89; C: 70-79; D: 60-69; E: 50-59; F: less than 50; G: inactive); BAW: activity at 400 ppm against beet armyworm (% Control rating) ([6]; in vivo): A (key: A: 90-100; B: 80-89; C: 70-79; D: 60-69; E: 50-59; F: less than 50; G: inactive); GLH: activity at 10 ppm against green leafbopper (% Control rating) ([3]; in vivo): F (key: A: 90-100; B: 80-89; C: 70-79; D: 60-69; E: 50-59; F: less than 50; G: inactive); WF: activity at 200 ppm against whitefly (% Control rating) ([7]; in vivo): F (key: A: 90-100; B: 80-89; C: 70-79; D: 60-69; E: 50-59; F: less than 50; G: inactive); BPH: activity at 10 ppm against brown planthopper (% Control rating) ([4]; in vivo): E (key: A: 90-100; B: 80-89; C: 70-79; D: 60-69; E: 50-59; F: less than 50; G: inactive)
Cn1nc(-c2c(F)cccc2Cl)nc1-c1ccc(C#Cc2ccc(C(F)(F)F)cc2)c(Cl)c1Cl [Compound 94, 1-Methyl-3-(2-Chloro-6-fluorophenyl)-5-(2,3-dichloro-4-(2-(4-trifluoromethyl)phenyl)-ethynyl-phenyl)-1 H[1,2,4]triazole]	–	–	–	–	–	–	pest or weed control at 400 ppm ([5]; Heliothis virescens, 120 h, read-out: TBW: activity at 400 ppm against tobacco budworm (% Control rating)): 60 to 69%; pest or weed control at 50 ppm [1, 8]: 80 to 89%; pest or weed control at 400 ppm [2, 9]: 90 to 100%; pest or weed control at 400 ppm [6, 11]: 90 to 100%; pest or weed control at 200 ppm [7, 12]: < 50%
